Experimental data as given in patent US5762960A (Trustees of Tufts College, priority 1996, dated 1998).
Read-outs that look alike come from different tables or passages of the source.

What was measured:
[1] = cited from earlier work
[2] = test system: norepinephrine uptake; parameters: Amine Uptakes Blocking Activity Norepinephrine: key to the marks not given beside the values; details: cited from earlier work; for Amine Uptakes Blocking Activity Norepinephrine: Table 3; for Interaction and blocking activity at the norepinephrine receptor site: in words, text commenting on Table 6
[3] = test system: canine affective aggression behavior; assay: Case histories: treatment of household dogs exhibiting canine affective aggression
Description: The clinical diagnosis was affective aggression behavior which was dominance aggression and/fear aggression.

[4] = test system: dopamine uptake; details: in words, footnote 5 of Table 6; cited from earlier work
[5] = test system: dopamine receptors; details: in words, footnote 3 and text on Table 6; cited from earlier work
[6] = Table 6, parent compound plus active metabolite
[7] = Case 4, Cocker Spaniel, orally 25 mg daily, after two months

CNCCCN1c2ccccc2CCc2ccccc21 [Desipramine, desipramine]
Half-life ([1]; human, in vivo): 12 to 24 h
Therapeutic plasma level ([1]; in vivo): 125 to 300 ng/mL
Time to reach steady state ([1]; in vivo): 2 to 11 days

CN[C@H]1CC[C@@H](c2ccc(Cl)c(Cl)c2)c2ccccc21 [Sertraline, sertraline]
Time to reach steady state ([1]; in vivo): 7 days

CNCCC=C1c2ccccc2CCc2ccccc21 [Nortriptyline, 3-(10,11-Dihydro-5H-dibenzo[a,d]cyclohepten-5-ylidene)-N-methyl-1-propamine]
Half-life ([1]; Table 3): 18 to 44 h
Time to Reach Steady State ([1]; Table 3): 4 to 19 days
Half-life ([1]; Table 6): 18 to 44 h
Time to reach steady state ([1]; Table 6): 4 to 19 days

CN(C)CCC=C1c2ccccc2CCc2ccccc21 [Amitriptyline]
Amine Uptakes Blocking Activity Norepinephrine [2]: ++
Interaction and blocking activity at the norepinephrine receptor site [2]: modest or slight
Half-life ([1]; Table 3): 31 to 46 h
Therapeutic Plasma Level ([1]; Table 3, marked ^1, footnote printed only under Table 6: parent compound plus active metabolite): 110 to 250 ng/mL
Half-life ([1]; Table 6): 31 to 46 h
Therapeutic plasma level [1, 6]: 110 to 250 ng/mL
Time to Reach Steady State ([1]; in vivo): 4 to 10 days
Time to reach steady state ([1]; in vivo): 4 to 10 days

CN(C)CCCN1c2ccccc2CCc2ccc(Cl)cc21 [Clomipramine, 3-chloro-10,11-dihydro-N,N-dimethyl-5H-benzo-[b,f]azepine-5-propamine]
Amine Uptakes Blocking Activity Norepinephrine [2]: ++
Interaction and blocking activity at the norepinephrine receptor site [2]: modest or slight
Therapeutic Plasma Level ([1]; in vivo): 80 to 100 ng/mL
Therapeutic plasma level ([1]; in vivo): 80 to 100 ng/mL
Time to Reach Steady State ([1]; in vivo): 7 to 14 days
Time to reach steady state ([1]; in vivo): 7 to 14 days
Owner-noted change in aggressive behavior ([3]; Case 1, Australian Shepherd, 25 mg daily, after one week's treatment): slight improvement
Improvement in aggression behavior ([3]; Case 1, Australian Shepherd, 25 mg daily, after several weeks' treatment): maintained
Owner-rated improvement of behavior ([3]; Case 1, Australian Shepherd, 25 mg daily, three weeks after start): 50-75%
Owner rating of behavior ([3]; Case 2, Lhasa Apso, dominance and territorial aggression, approx. 1 mg/kg twice a day for one week then approx. […] twice a day, after two weeks): slightly improved
Persistence of improvement in aggressive behavior ([3]; Case 2, Lhasa Apso, through the eight weeks following termination of administration): sustained
Improvement in behavior ([3]; Case 3, German Shepherd, fear and territorial aggression, once a day slightly less than 1 mg/kg, after two weeks): Moderate improvement
Improvement in behavior ([3]; Case 3, German Shepherd, once a day slightly less than 1 mg/kg, eight weeks after initiation): moderate improvement
Owner-rated improvement in behavior ([3]; Case 4, Cocker Spaniel, dominance/fear aggression, orally 25 mg daily, after one week): 25-50%
Owner-reported behavior ([3]; Case 4, Cocker Spaniel, orally 25 mg daily, after one month): much calmer on the street
Improvement in behavior [3, 7]: 50-75%
Owner-reported behavior [3, 7]: essentially non-aggressive
Owner-reported behavior ([3]; Case 4, Cocker Spaniel, orally 25 mg daily, after two weeks): fine in the house
Overall effectiveness for treatment of interspecific affective aggression in dogs ([3]; conclusion from the four case histories, no behavior modification therapy): very effective

CC(NC(C)(C)C)C(=O)c1cccc(Cl)c1 (stereo not drawn) [Bupropion, bupropion]
Dopamine uptake inhibition [4]: Inhibits dopamine uptake
Half-life ([1]; Table 6): 8 to 24 h
Time to reach steady state ([1]; Table 6): 1.5 to 5 days

CN(C)CCC=C1c2ccccc2COc2ccccc21 [Doxepin, doxepin]
Half-life ([1]; human, in vivo): 8 to 24 h
Time to reach steady state ([1]; in vivo): 2 to 8 days

CC(C)NCC(O)COc1cccc2ccccc12 (stereo not drawn) [inclerol]
Effect on aggressive behavior ([3]; Case 1, Australian Shepherd, 14-year old castrated male, beta-blocker for one week): only increased his aggressive behavior

CNCCC(Oc1ccc(C(F)(F)F)cc1)c1ccccc1 (stereo not drawn) [Fluoxetine, fluoxetine]
Time to reach steady state ([1]; in vivo): 2-4 weeks

CNCCCC1c2ccccc2C=Cc2ccccc21 [Protriptyline, protriptyline]
Half-life ([1]; human, in vivo): 67 to 89 h
Therapeutic plasma level ([1]; in vivo): 100 to 200 ng/mL
Time to reach steady state ([1]; in vivo): 14 to 19 days

CNCCCC12CCC(c3ccccc31)c1ccccc12 [Maprotiline, maprotiline]
Time to reach steady state ([1]; Table 6): 6 to 10 days
Therapeutic plasma level [1, 6]: 200 to 300 ng/mL
Half-life ([1]; human, in vivo): 21 to 25 h

Clc1ccc2c(c1)C(N1CCNCC1)=Nc1ccccc1O2 [Amoxapine, amoxapine]
Half-life ([1]; human, in vivo): 8 h
Therapeutic plasma level ([1]; in vivo): 200 to 500 ng/mL
Time to reach steady state ([1]; in vivo): 2 to 7 days
Dopamine receptor blockade / interaction [5]: blocks dopamine receptors

CN(C)CCCN1c2ccccc2CCc2ccccc21 [Imipramine, imipramine]
Time to reach steady state ([1]; in vivo): 2 to 5 days

CC(CN(C)C)CN1c2ccccc2CCc2ccccc21 (stereo not drawn) [Trimipramine, trimipramine]
Half-life ([1]; Table 6): 7 to 30 h
Time to reach steady state ([1]; in vivo): 2 to 6 days

Fc1ccc([C@@H]2CCNC[C@H]2COc2ccc3c(c2)OCO3)cc1 [Paroxetine, paroxetine]
Half-life ([1]; Table 6): 10 to 24 h
Time to reach steady state ([1]; in vivo): 7 to 14 days
